Laboratory results reported in US12492173B2, “Herbicidal substituted N-tetrazolyl aryl carboxamides” (Bayer Aktiengesellschaft, priority 2019, dated 2025).

Columns and labels:
Type in all cases: in vivo
Amaranthus retroflexus = experiment: Pre-emergence herbicidal action, AMARE; set-up: key to Herbicidal action against AMARE: % activity: 100 = plants have died, 0 = like control plants; conditions: for herbicidal action AMARE / herbicidal activity AMARE: dosage 320 g/ha; for herbicidal activity AMARE: scored visually after 3 weeks vs untreated controls (100% = plants have died); for Herbicidal action against AMARE: comparative experiment, 20 g of a.i./ha
Summary of the method: (§1)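 Sown pots (sandy loam) sprayed pre-emergence → greenhouse → visual rating at 3 weeks; % activity vs untreated control, 100% = dead.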

Echinochloa crus-galli [1] = experiment: Pre-emergence herbicidal action, ECHCG; set-up: key to Herbicidal action against ECHCG: % activity: 100 = plants have died, 0 = like control plants; conditions: for herbicidal action ECHCG / herbicidal activity ECHCG: dosage 320 g/ha; for herbicidal activity ECHCG: scored visually after 3 weeks vs untreated controls (100% = plants have died); for Herbicidal action against ECHCG: comparative experiment
Summary of the method: as §1

Alopecurus myosuroides = experiment: Post-emergence herbicidal action, ALOMY; set-up: key: % herbicidal action vs untreated; 100 = plants died, 0 = like control
Summary of the method: (§2)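 Foliar application at the one-leaf stage of greenhouse-grown plants in sandy loam; compound applied as WP or EC in 600–800 l/ha water containing 0.2% wetting agent. Scores are visual percentages (0% like control, 100% plants died) taken after roughly 3 weeks.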

Echinochloa crus-galli [2] = experiment: Post-emergence herbicidal action, ECHCG; set-up: key: % herbicidal action vs untreated; 100 = plants died, 0 = like control
Summary of the method: as §2

Pharbitis purpurea = experiment: Post-emergence herbicidal action, PHBPU
Summary of the method: as §2

Setaria viridis = experiment: Post-emergence herbicidal action, SETVI; set-up: key: % herbicidal action vs untreated; 100 = plants died, 0 = like control
Summary of the method: as §2

[3] = comparative experiment, post-emergence, 20 g of a.i./ha

Compound | herbicidal action AMARE (Amaranthus retroflexus) [%] | herbicidal action ECHCG (Echinochloa crus-galli [1]) [%] | herbicidal action ECHCG (Echinochloa crus-galli [2]; Dosage 80 g/ha) | herbicidal action PHBPU (Pharbitis purpurea; Dosage 80 g/ha) | herbicidal action SETVI (Setaria viridis; Dosage 80 g/ha) | herbicidal activity AMARE (Amaranthus retroflexus) [%] | herbicidal activity ECHCG (Echinochloa crus-galli [1]) [%] | herbicidal action ALOMY (Alopecurus myosuroides; post-emergence, dosage 80 g/ha) [%] | herbicidal action ECHCG (Echinochloa crus-galli [2]; post-emergence, dosage 80 g/ha) [%] | herbicidal action PHBPU (Pharbitis purpurea; post-emergence, dosage 80 g/ha) [%] | herbicidal action SETVI (Setaria viridis; post-emergence, dosage 80 g/ha) [%] | further results
Cc1ccc(C(=O)Nc2nnnn2C)c(Cl)c1C[S+](C)[O-] (racemic) [Example 1-288] | 100 | 90 | 90 | 90 | 100 | – | – | – | – | – | – | herbicidal action ALOMY (Alopecurus myosuroides; Dosage 80 g/ha): 80
CC[S+]([O-])Cc1c(C(F)(F)F)ccc(C(=O)Nc2nnnn2C)c1Cl (racemic) [Example 1-300] | – | – | – | – | – | 100 | 100 | 90 | 100 | 90 | 90 | –
Cn1nnnc1NC(=O)c1ccc(C(F)(F)F)c(C[S+]([O-])C2CC2)c1Cl (racemic) [Example 1-303] | – | – | – | – | – | 100 | 100 | 100 | 100 | 100 | 100 | –
COCC[S+]([O-])Cc1c(C(F)(F)F)ccc(C(=O)Nc2nnnn2C)c1Cl (racemic) [Example 1-306] | – | – | 90 | 90 | 90 | 100 | 100 | – | – | – | – | herbicidal action ALOMY (Alopecurus myosuroides; Dosage 80 g/ha): 90
Cn1nnnc1NC(=O)c1ccc(C(F)(F)F)c(C[S+]([O-])CC(F)(F)F)c1Cl (racemic) [Example 1-312] | – | – | – | – | – | 100 | 100 | 90 | 100 | 100 | 100 | –
Cn1nnnc1NC(=O)c1ccc(I)c(C[S+](C)[O-])c1Cl (racemic) [Example 1-363] | – | – | – | – | – | 100 | 100 | 90 | 100 | 90 | 100 | Herbicidal action against AMARE (Amaranthus retroflexus): 100
CC[S+]([O-])Cc1c(C(F)(F)F)ccc(C(=O)Nc2nnnn2C)c1Br (racemic) [Example 1-384] | – | – | – | – | – | 100 | 100 | 90 | 100 | 90 | 90 | Herbicidal action against ECHCG (Echinochloa crus-galli [1]; 80 g of a.i./ha): 100; Herbicidal action against ECHCG (Echinochloa crus-galli [2]; [3]): 90; Herbicidal action against SETVI (Setaria viridis; [3]): 90
CSCc1c(C(F)(F)F)ccc(C(=O)Nc2nnnn2C)c1C [Example 1-83] | – | – | – | – | – | 100 | 100 | 80 | 90 | 100 | 100 | –
CCS(=O)(=O)Cc1c(C(F)(F)F)ccc(C(=O)Nc2nnnn2C)c1C [Example 1-88] | 100 | 100 | 90 | 90 | 90 | – | – | – | – | – | – | herbicidal action ALOMY (Alopecurus myosuroides; Dosage 80 g/ha): 80
CSc1c(C(=O)Nc2nnnn2C)ccc(C(F)(F)F)c1C[S+](C)[O-] (stereo not shown) [Example 1-162] | – | – | – | – | – | 100 | 100 | 100 | 100 | 100 | 100 | Herbicidal action against AMARE (Amaranthus retroflexus): 100; Herbicidal action against ECHCG (Echinochloa crus-galli [1]; 20 g of a.i./ha): 90
CSc1c(C(=O)Nc2nnnn2C)ccc(C(F)F)c1C[S+](C)[O-] (stereo not shown) [Example 1-171] | – | – | 100 | 90 | 100 | 100 | 100 | – | – | – | – | herbicidal action ALOMY (Alopecurus myosuroides; Dosage 80 g/ha): 80
CSCc1c(C)ccc(C(=O)Nc2nnnn2C)c1Cl [Example 1-287] | 90 | 80 | 100 | – | 90 | – | – | – | – | – | – | herbicidal action ALOMY (Alopecurus myosuroides; Dosage 80 g/ha): 90
CCSCc1c(C(F)(F)F)ccc(C(=O)Nc2nnnn2C)c1Cl [Example 1-299] | – | – | – | – | – | 100 | 100 | 90 | 90 | 90 | 90 | Herbicidal action against ALOMY (Alopecurus myosuroides; comparative experiment, post-emergence, 5 g of a.i./ha): 70
Cn1nnnc1NC(=O)c1ccc(I)c(CS(C)(=O)=O)c1Cl [Example 1-364] | – | – | 100 | – | 100 | 100 | 100 | – | – | – | – | Herbicidal action against AMARE (Amaranthus retroflexus): 100; Herbicidal action against ECHCG (Echinochloa crus-galli [1]; 20 g of a.i./ha): 90; herbicidal action ALOMY (Alopecurus myosuroides; Dosage 80 g/ha): 90
CCCn1nnnc1NC(=O)c1ccc(S(C)(=O)=O)c(CS(C)(=O)=O)c1C [Example 3-39] | 100 | 90 | 90 | 90 | 90 | – | – | – | – | – | – | –
CCCn1nnnc1NC(=O)c1ccc(C(F)(F)F)c(CSCC)c1C [Example 3-86] | 100 | 100 | 90 | 90 | 90 | – | – | – | – | – | – | –
CCCn1nnnc1NC(=O)c1ccc(C(F)(F)F)c(C[S+](C)[O-])c1OC (stereo not shown) [Example 3-135] | 100 | 100 | 100 | 90 | 100 | – | – | – | – | – | – | –
CCCn1nnnc1NC(=O)c1ccc(C(F)(F)F)c(CSC)c1SC [Example 3-161] | 100 | 100 | 90 | 90 | 100 | – | – | – | – | – | – | –
CCCn1nnnc1NC(=O)c1ccc(C(F)(F)F)c(CS(C)(=O)=O)c1Cl [Example 3-298] | – | – | 90 | 100 | 80 | 100 | 100 | – | – | – | – | –
CCCn1nnnc1NC(=O)c1ccc(C(F)(F)F)c(CS(=O)(=O)CC)c1Cl [Example 3-301] | 100 | 100 | 90 | 100 | 90 | – | – | – | – | – | – | –
CCCn1nnnc1NC(=O)c1ccc(C(F)F)c(CS(C)(=O)=O)c1Cl [Example 3-322] | – | – | 100 | 90 | 80 | 100 | 100 | – | – | – | – | –
CCCn1nnnc1NC(=O)c1ccc(C(F)F)c(CS(=O)(=O)CC)c1Cl [Example 3-325] | – | – | 100 | 90 | 100 | 100 | 100 | – | – | – | – | –
CCCn1nnnc1NC(=O)c1ccc(C(F)(F)F)c(CS(C)(=O)=O)c1Br [Example 3-382] | 100 | 90 | 90 | 100 | 100 | – | – | – | – | – | – | –
